Tests used:
murine LSCs = assay: Colony assay of murine LSCs in methylcellulose; format: cell-based, mouse
Protocol: Colony assays from BM lin^- cells of CML and naive mice and CD34^+ stem/progenitor cells of human CML patients were performed as described before ([…] et al. 2015). For mouse colony assays 10^3 FACS-purified LSKs or LSCs were plated in methylcellulose and colonies were enumerated 7 days later. For serial re-plating experiments, 10^4 cells were collected from preceding colony assays and re-plated in methylcellulose. Colonies were enumerated 7 days later. For experiments using metoclopramide (Sigma), 10^3 FACS-purified murine LSCs or 2x10^3 human CD34^+ […] methylcellulose. Colony were enumerated 7 days and 14 days later, respectively. For re-plating assays 10^4or 2x10^4 cells isolated from primary mouse and human colony assays, respectively, were subsequently replated in methylcellulose in the absence of any compound. Colony were enumerated 7 days and 14 days later, respectively.

human CD34^+CD38^- LSCs = assay: Colony and re-plating assay of human CML stem/progenitor cells in semisolid culture; format: cell-based; details: 0.1µM, semisolid cultures, compared to control treatment
Protocol: Colony assays from BM lin^- cells of CML and naive mice and CD34^+ stem/progenitor cells of human CML patients were performed as described before (Riether et al. 2015).
For experiments using metoclopramide (Sigma), 10^3 FACS-purified murine LSCs or 2x10^3 human CD34^+ stem/progenitor cells were incubated overnight in 96 well V-bottom plates in the presence of 0.1 and 1µM metoclopramide or vehicle followed by plating methylcellulose. Colony were enumerated 7 days and 14 days later, respectively.
For re-plating assays 10^4or 2x10^4 cells isolated from primary mouse and human colony assays, respectively, were subsequently replated in methylcellulose in the absence of any compound. Colony were enumerated 7 days and 14 days later, respectively.

SMILES	colony formation of murine LSCs (murine LSCs)	colony formation (human CD34^+CD38^- LSCs)	re-plating capacity (human CD34^+CD38^- LSCs; re-plating in the absence of compound)	clonogenic potential of CD93-competent LSCs (murine LSCs; in vitro, BL/6 LSCs cultured overnight with 1mM metoclopramide (Fig. 6H), colonies assessed 7 days later)	colony formation of CD93-deficient LSCs (murine LSCs; in vitro, Cd93^-/- LSCs cultured overnight with 1mM metoclopramide (Fig. 6H), colonies assessed 7 days later)
CC(CN1c2ccccc2Sc2ccccc21)N(C)C (stereo not drawn) [promethazine, Promethazine]	effective in reducing colony formation of murine LSCs				
CCN(CC)CCNC(=O)c1cc(Cl)c(N)cc1OC [metoclopramide, Metoclopramide]	effective in reducing colony formation of murine LSCs	significantly impaired	significantly impaired	reduced clonogenic potential of CD93-competent LSCs to comparable levels as CD93-deficient LSCs	without further affecting colony formation of CD93-deficient LSCs

— EP3818977A1, “CD93 INHIBITORS FOR USE IN THE TREATMENT OF CANCER” (Universität Bern, priority 2019, dated 2021)
